From US9260417B2, “Therapeutic methods and compositions involving allosteric kinase inhibition” (AMITECH THERAPEUTIC SOLUTIONS, INC., priority 2010, dated 2016)

Legend:
A431 = assay: Tumor cell viability; format: cell-based; details: Epithelial Carcinoma A431, HER1
Description: (§1) For XTT assays, cells were grown in 96-well plates overnight and all assays were conducted in growth medium will full serum and additives. Compounds were serially diluted in DMSO and then further diluted into the medium to give the appropriate concentration while minimizing precipitation associated with serial diluting in medium alone Inhibitors were added for 72 h and cell viability was quantified at 450 nm after the addition of 1 mg/ml XTT solution (Sigma-Aldrich) in phenol-red free DMEM medium containing […] (Sigma-Aldrich). Dose-response curves were plotted using GraphPad Prism software and EC50s were calculated using this program.

CT26 = assay: Tumor cell viability; format: cell-based; details: Colon Carcinoma CT26
Description: as §1

M21L = assay: Tumor cell viability; format: cell-based; details: Melanoma M21L
Description: as §1

M21 = assay: Tumor cell viability; format: cell-based; details: Melanoma M21
Description: as §1

MEK S298 = assay: PAK-mediated MEK S298 phosphorylation in endothelial cells; format: cell-based, human; details: HUVECs stimulated with bFGF or VEGF, 5 μM
Description: FIG. 1A-1F illustrate molecular modeling and assay screening to compounds for dual targeting of PDGFRβ and RAF. (FIG. 1A) Molecular modeling of the amino-triazole based small molecules in PDGFRβ and RAF, respectively. […] A homology model of PDGFRβ was created with a structurally-related family member (VEGFR2, PDB 1y6b). […] To autophosphorylation, immunoblots were carried out with a phospho-tyrosine antibody. Membranes were stripped and reprobed for total PDGFRβ levels. […] (FIG. 1D) Structure activity relationships of the amino-triazole based small molecules comparing both PDGFRβ and B-RAF. […] Curves represent the average of 3 separate experiments, error bars represent ±SEM.
Following stimulation with bFGF, VEGFA or PDGF-BB, cells were washed 1× with ice-cold PBS and lysed in RIPA buffer. For the PDGFRβ autophosphorylation assay in VSMCs, 500 μg of protein from lysates was incubated with 3 μg of anti-PDGFRβ (sc-432, Santa Cruz Biotechnology) for 1 h at 4° C. and subsequently tumbled overnight with protein A/G beads (Pierce) for immunoprecipitation. […] HRP conjugated primary or secondary Abs were detected with SuperSignal ECL (Pierce). […]

[1] = tested on: XPA-1-RFP pancreatic tumor xenografts; assay: Orthotopic pancreatic carcinoma model; format: in vivo, mice; details: 50 mg/kg
Description: Drug treatments were started 3 days after surgical orthotopic implantation (SOI) of XPA1-RFP tumors and tumor progression was monitored every 3 days by whole animal imaging. Scale bar=10 mm. […] Tumor surface area was calculated by adding the total pixels of both the ventral and lateral images of the tumor. *p=0.034. (FIG. 5C) Average body weight of the mice measured each day of whole animal imaging described in FIGS. 5A and 5B above. (FIG. 5D) Total weights of resected primary tumors on day 15 post (SOI), *p=0.022. (FIG. 5E) Representative fluorescent images of endothelial GFP expression (GFP expression driven by the Nestin promoter) within the XPA1-RFP tumors after resection. Images taken 15 days post SOI. Scale bar=200 μm. (FIG. 5F) Plot of tumor vessel density from images acquired as in FIG. 5E. Blood vessels imaged as in 5E were converted to length (mm) and normalized to the tumor volume (mm^3), *p=0.01.
Orthotopic human pancreatic cancer xenografts from the pancreatic cancer cell line XPA1-RFP were established in nude mice by surgical orthotopic implantation (SOI). Briefly, subcutaneous XPA1-RFP tumors in the exponential growth phase were harvested and sectioned into 1 mm^3 pieces in serum-free RPMI medium. Mice were anesthetized using 50% ketamine, 38% xylazine and 12% agepromazine maleate injected intramuscularly at a dose of 2 μl/g, and their abdominal wall was sterilized with alcohol. A small incision was then made in the right pararectal line through the skin and peritoneum. The body of the pancreas was exposed and a 1 mm^3 tumor fragment was sutured to the pancreas using a single 8-0 nylon surgical suture (Davis-Geck, Inc. Manati, Puerto Rico). The pancreas was then returned to the abdomen and the peritoneum and skin were closed in two layers using 6-0 vicryl surgical suture.
At day 3 after SOL the animals began treatment with twice-daily IP injections of either compound, 6 (50 mg/kg dose in 200 μl total volume), or vehicle control at 12 hour intervals. […] At day 12 post-SOI the animals were sacrificed and their tumors were excised, weighed, and measured in 3 dimensions in order to calculate tumor volume. The tumor volume was calculated with the formula: volume=height×width×length×0.52. […] The total vessel length for each tumor was measured using Image-J software and converted to vessel density by dividing total tumor vessel length by tumor volume. […]
RFP expressing XPA-1 pancreatic tumor xenografts were implanted into the pancreas of Nestin GFP-mice enabling detection of both developing blood vessels (GFP) and primary tumor (RFP). […] Tumor growth was monitored non-invasively by whole body imaging using the Olympus OV100 Small Animal Imaging System to detect the RFP signal from the tumor implant within the pancreas.

With `CSc1nc(N)cc(Oc2ccc(-c3nnc(Nc4cccc(C(F)(F)F)c4)[nH]3)cc2)n1` [Compound 6] the EC50 (A431) was 430 nM, the EC50 (CT26) was 710 nM and the EC50 (M21L) was 420 nM. The EC50 (M21) was 450 nM, the “PAK-mediated phosphorylation on MEK S298” value (MEK S298) was “did not block” and the body weight ([1]; bid) was “no weight loss”. For the same compound, the “mean vessel length/tumor volume” value ([1]; bid (vehicle 2.5)) was 0.2 mm/mm^3, the tumor growth ([1]; bid, from day 3, 12 days post SOI) was “completely suppressed” and the average tumor weight ([1]; resected on day 15, bid (vehicle 74.1 mg)) was 26.7 mg.
